Laboratory results from paper PMC7496960, “Nonanal modulates oviposition preference in female Helicoverpa assulta (Lepidoptera: Noctuidae) via the activation of peripheral neurons” (Pest Management Science, 2020).

System: T1, HassOR67/Orco (HassOR67/HassOrco; OR67)
T1 construct: full-length ORF from antennal cDNA in pT7Ts; cRNA co-injected with Orco cRNA into Xenopus laevis oocytes; with Odorant receptor coreceptor
Assay: two-electrode voltage clamp, Xenopus oocytes
Assay type: cell-based, Helicoverpa assulta
Conditions: co-expressed with Orco; agonist; holding potential −80 mV; 1 × 10^−7 to 1 × 10^−3 M

EC50: 8.49 µM
Compound: CCCCCCCCC=O [nonanal]
